Series [1] relates to E. coli TOP10 cells. Briefly: Time-kill assay. The class given is cell-based, Escherichia coli. The procedure: An overnight culture of E. coli TOP10 cells was diluted 1:10,000 in MHB and incubated at 37 °C with agitation at 180 rpm for 2 h (early exponential). The bacteria were then challenged with brevicidine (20 μg mL^−1), laterocidine (20 μg mL^−1), or polymyxin B (10 μg mL^−1) at ten times the MIC at room temperature without shaking. An untreated sample of cells was used as a negative control. At intervals, 10 μL aliquots were removed, centrifuged at 10,000 × g for 1 min and resuspended in 1.0 mL of sterile PBS. Tenfold serially diluted suspensions were plated on MHB agar plates and incubated at 37 °C overnight. Colonies were counted and the number of c.f.u. per mL was calculated. For analysis of lysis, 300 μL of culture (OD600 = 1.0) were treated with antibiotics at ten times the MIC for 24 h. Experiments were performed in triplicate.

The subject of series [2] is E. coli TOP10 cells. The series can be described thus: Bacterial growth kinetics. It is filed as cell-based, Escherichia coli. The settings on record: OD600 of cells exposed to antibiotics (Fig. 4: two times the MIC). The procedure: A single fresh colony of E. coli TOP10 cells was inoculated into MHB (5 mL) and grown with shaking at 225 rpm overnight. The bacteria were diluted to 1 × 10^5 c.f.u. mL^−1 in fresh MHB, grown […] to early log-phase (OD600 = 0.15) and treated with the antibiotics of interest in the wells of a 96-well plate. Final antibiotic concentrations varied from one to eight times the MIC. The plate was then incubated at 30 °C overnight, with OD600 measurements taken every 30 s.

Series [3] relates to E. coli ATCC 25922. The settings on record: 10^8 c.f.u. plated on Mueller–Hinton agar at four times the MIC, 48 h, 37 °C. Here is the method:
(§1) E. coli ATCC 25922 was inoculated into MHB overnight at 37 °C with continuous shaking. Cells were diluted 10,000 times in MHB to about 1 × 10^6 c.f.u. mL^−1. Ten µL aliquots were drawn to a 96-well plate containing 90 µL of serially diluted brevicidine, laterocidine, and ciprofloxacin, at final concentrations of 0.5×, 1×, 1.5×, 2×, and 4× MIC. […] Plates with bacteria were incubated at 37 °C without shaking. […] This process was repeated for 30 days, and the final MIC was confirmed by the same antibacterial assay as the one described above. The experiment was performed in quadruplicate, and on each day, the sample that developed the highest resistance was measured to plot the curve. For single-step resistance, E. coli ATCC 25922 cells at 10^8 c.f.u. were plated onto Mueller–Hinton agar containing 4× MIC of brevicidine.

The subject of another series is Saccharomyces cerevisiae. The class given is cell-based. The settings on record: 24 h.
Another series deals with Human HeLa cells. The settings on record: concentrations up to 128 μg mL^−1, 48 h, 37 °C, MTT, absorbance 570 nm.
In the next series the test system is E. cloacae NRRL-B-425. It is filed as cell-based, Enterobacter cloacae. The settings on record: NRRL-B-425, 24 h. Here is the method: (§2) MIC was determined by broth microdilution according to CLSI guidelines. The test medium for most species was Mueller–Hinton broth (MHB). Bacteria were grown overnight to early stationary phase and adjusted in MHB to 5.0 × 10^5 c.f.u. mL^−1 in the wells of 96-well microtiter plates (Falcon® 96-Well Flat-Bottom Microplate, Tissue Culture-Treated), mixed with varying concentrations of test compounds and incubated at 37 °C for 24 h. Cell growth was evaluated by measuring the optical density at 595 nm (Thermo Scientific Multiskan FC multiplate photometer) (Waltham, MA, USA), and the MIC was defined as the lowest compound concentration at which no bacterial growth was observed. MHBs containing 10% fetal bovine serum (Gibco), 21 mM MgCl, or 1.0 mg mL^−1 LPS (lipopolysaccharides from E. coli O55:B5, Sigma-Aldrich) was used to test their inhibitory effects.

The subject of series [4] is Pseudomonas aeruginosa PAO1. It is filed as cell-based. The settings on record: Supplementary Table 1; Pa = Pseudomonas aeruginosa PAO1. The procedure:
as §2

Series [5] concerns Staphylococcus aureus (MRSA). It is filed as cell-based. The settings on record: 24 h. The procedure: as §2
A further series deals with Gram-negative bacteria. The class given is cell-based. The procedure:
as §2

In the next series the test system is rabbit erythrocytes. The settings on record: concentrations up to 128 μg mL^−1, 2% (v/v) rabbit erythrocytes in PBS, 1 h, 37 °C, absorbance 570 nm, vs 10% Triton X-100.
For series [6], the system named is E. coli ATCC 25922. The series can be described thus: Resistance acquisition during serial passaging. The class given is cell-based, Escherichia coli. The settings on record: subinhibitory concentrations, 30-day period, MHB, 37 °C, quadruplicate. Here is the method:
as §1

The test system of a further series is Acinetobacter baumannii. Briefly: MIC by broth microdilution. The class given is cell-based. The settings on record: Supplementary Table 1. The procedure:
as §2
A general note: Dilution methods test growth across graded concentrations, often in twofold steps.

The next series deals with Bacillus subtilis 168. Briefly: MIC by broth microdilution. It is filed as cell-based. The settings on record: Supplementary Table 1; Bs = B. subtilis 168. Here is the method:
as §2

For series [7], the system named is Enterobacter cloacae NRRL-B-413. The series can be described thus: MIC by broth microdilution. The class given is cell-based. The settings on record: Supplementary Table 1; En = Enterobacter cloacae NRRL-B-413. Here is the method: as §2
For series [8], the system named is Klebsiella pneumoniae NRRL-B-408. The series can be described thus: MIC by broth microdilution. The class given is cell-based. The settings on record: Supplementary Table 1; Kp = Klebsiella pneumoniae NRRL-B-408. Here is the method: as §2
The nature of series [9]: Peptide binding to LPS by isothermal titration calorimetry. Details: species or system Escherichia coli. The settings on record: 37 °C. The procedure:
Microcalorimetric experiments of peptide binding to LPS were performed on an MCS isothermal titration calorimeter (Microcal, Northampton, MA) at 37 °C. LPS was prepared as a 50 µM aqueous suspension in 20 mM HEPES buffer (pH 7.0) by suspension, sonication, and temperature cycling between 5 and 70 °C. This suspension was stored at 4 °C overnight prior to use. Aliquots of 100 µM peptide solutions (brevicidine and polymyxin B) were prepared in the same buffer and all solutions were degassed prior to use by stirring under vacuum for 5 min at 37 °C. After thermal equilibration, 5 µL aliquots of the peptide solution were added every 3 min into the lipid-containing cell at 37 °C with constant stirring. The change in heat during the titration steps was registered in real time and raw data were processed using the Origin® 7 software provided with the instrument. In control experiments, the corresponding peptide solution (or LPS solution) was injected into the buffer without LPS (or without peptide).
Background: In ITC the heat of successive injections is recorded.

As a reminder, the MIC is the lowest concentration found to suppress growth. Lower therefore signals greater potency. Usually Kd stands for the equilibrium constant for the complex coming apart.

Molecules are shown by their SMILES. Values after ≈ are worked out from the molar mass of the structure shown. Read-outs that look alike come from different tables or passages of the source. Where a SMILES comes first, the peptide text is derived from it. Bridges are numbered along the chain shown (N, C = ends). [ ]: non-standard residue; d: D form. The star is where a group is joined. ξ: configuration not given here. Hexanoyl(4ξ-Me) = CCC(C)CCC(=O)*; dOrn = NCCC[C@@H](N)C(=O)O; Orn = NCCC[C@H](N)C(=O)O

Protocol for Human HeLa cells: Human HeLa cells were used in the assay. Ninety μL of 1 × 10^5 mL^−1 cells were placed into the wells of 96-microwell plates. After 12 h, 10 μL of a medium containing test compounds at various concentrations were added to the cells which were then incubated at 37 °C for 48 h. Afterward, the supernatant was removed and 20 μL of MTT (3-(4,5-Dimethylthiazol-2-yl)-2,5-Diphenyltetrazolium Bromide) (2.5 mg mL^−1) in PBS were added to each well. After incubation at 37 °C for 3 h, 80 μL of dimethyl sulfoxide (DMSO) were added to each well and incubated for an additional 15 min. The absorbance was then measured at 570 nm with a Thermo Scientific Multiskan FC multiplate photometer.
Protocol for rabbit erythrocytes: Hemolytic activity was determined with red blood cells freshly isolated from healthy rabbits. […] The cells were incubated for 1 h at 37 °C and centrifuged for 5 min at 10,000 × g. The supernatant was transferred to a 96-well plate and the absorbance was measured at a wavelength of 570 nm with a Thermo Scientific Multiskan FC multiplate photometer. The absorbance relative to the positive control, which was treated with 10% Triton X-100, was defined as the percentage of hemolysis.

Turning to `CCC(C)CCC(=O)N[C@H](CC(N)=O)C(=O)N[C@H](Cc1ccc(O)cc1)C(=O)N[C@H](Cc1c[nH]c2ccccc12)C(=O)N[C@H](CCCN)C(=O)N[C@@H](CCCN)C(=O)NCC(=O)N[C@H](CCCN)C(=O)N[C@@H](Cc1c[nH]c2ccccc12)C(=O)N[C@@H]1C(=O)N[C@@H]([C@@H](C)CC)C(=O)NCC(=O)N[C@@H](CO)C(=O)O[C@@H]1C` (some centres unmarked) [Compound 1, brevicidine] ({Hexanoyl(4ξ-Me)}-[dN][dY][dW][dOrn][Orn]G[dOrn]WTIGS; ester 9-C), in the series on E. coli TOP10 cells [1] (as revealed by growth kinetics, time-kill assay and lysis assay), the “bactericidal action against E. coli” value was “bactericidal”. The “cell viability in time-kill assay” value in the series on E. coli TOP10 cells [1] (ten times the MIC, early exponential cells, room temperature, c.f.u. counts, triplicate) is reported as “significant reduction after 30 min”. Moreover, the “growth kinetics of E. coli cells exposed to compound” value in the series with E. coli TOP10 cells [2] was “grew at a reduced rate for 30 min”. In addition, the single-step resistance entry is “did not develop resistance” in the series with E. coli ATCC 25922 [3] and “no resistant colonies were detected” in the series on E. coli ATCC 25922 [3] (listed as brevicidine). In addition, the MIC is more than 64 µg/mL against Saccharomyces cerevisiae, 2 µg/mL (≈ 1.32 µM) in the series on E. cloacae NRRL-B-425 and more than 64 µg/mL in series [5]. Moreover, the “toxicity against the human cell line HeLa” value in the series with Human HeLa cells is “nor showed significant toxicity”. Further, the “MIC, Pa” value in [4] is 1 µg/mL (≈ 0.658 µM). In addition, the “MIC values against Gram-negative bacteria” value in the series on Gram-negative bacteria (24 h) was 0.66 to 10.5 µM; against Gram-negative bacteria (range over Gram-negative strains incl. P. aeruginosa and colistin-resistant E. coli), 1 to 16 µg/mL. In addition, the “lysis of erythrocytes (hemolysis)” value in the series on rabbit erythrocytes was “neither caused the lysis of erythrocytes”. The “resistance development during serial passaging” value in the series on E. coli ATCC 25922 [6] is “did not develop resistance”. For the same molecule, in the series on Acinetobacter baumannii, the “MIC, Ab” value was found to be 16 µg/mL (≈ 10.5 µM). For the same molecule, the “MIC, Bs” value against Bacillus subtilis 168 worked out at 32 µg/mL (≈ 21.1 µM). Further, in series [7], the “MIC, En” value worked out at 2 µg/mL (≈ 1.32 µM). The “MIC, Kp” value in series [8] came to 2 µg/mL (≈ 1.32 µM). For the same molecule, in series [9] (20 mM HEPES pH 7.0), the “binding to LPS (ITC)” value was “strong binding to LPS”. For the same molecule, in series [9] (ITC, 50 µM LPS in 20 mM HEPES pH 7.0, 100 µM peptide, read-out: dissociation constant Kd for LPS), the Kd was 6.5 µM.

These data come from paper PMC6095874, “Discovery of cationic nonribosomal peptides as Gram-negative antibiotics through global genome mining” (Nature Communications, 2018).
